Structures can show the parent of a compound that is named as a salt. Where two headings read alike, the source gives them in different places. Bridge positions count the residues as written; N and C are the ends. Peptide text beside a SMILES is read from it.

These results are taken from paper PMC12670400, “LEKTI-Grafted Sunflower Trypsin Inhibitor: A Potential Therapeutic for Skin Diseases” (Journal of Medicinal Chemistry, 2025).

Assay [1] concerns plasmin. More on the design: method as in PMID 143965. The settings on record: cited from earlier work.
In another assay the test system is thrombin. More on the design: method as in PMID 143965. The following applies: cited from earlier work.
A further assay concerns trypsin. More on the design: method as in PMID 143965. The following applies: cited from earlier work.
The test system of the next assay is plasma kallikrein. More on the design: method as in PMID 143965. The settings on record: cited from earlier work.
Assay [2] has as its target T1, KLK5 (Homo sapiens, UniProt Q9Y337).
T1 construct: purchased R&D Systems 1108-SE
T1 sequence (Q9Y337 23-293): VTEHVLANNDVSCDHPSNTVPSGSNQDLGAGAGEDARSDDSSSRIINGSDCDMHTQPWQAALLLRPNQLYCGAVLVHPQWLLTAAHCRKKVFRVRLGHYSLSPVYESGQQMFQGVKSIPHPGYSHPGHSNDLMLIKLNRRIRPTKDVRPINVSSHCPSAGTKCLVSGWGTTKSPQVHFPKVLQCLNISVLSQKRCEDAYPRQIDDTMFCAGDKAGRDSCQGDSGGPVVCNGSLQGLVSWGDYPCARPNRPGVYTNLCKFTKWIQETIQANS
Kind of assay: Protease activity assay: inhibition of recombinant KLK5 (Boc-VPR-AMC substrate). The settings on record: for selectivity for KLK5 against select KLKs in skin: KLK5 versus other skin KLKs; for IC50: n = 3, 10 nM KLK5, Boc-VPR-AMC 100 µM, PBS pH 8.0, read-out: IC50 (n = 3)/nM for KLKs: KLK5. It counts as biochemical. How it is done:
Inhibitory activity against KLK5 was evaluated using the fluorogenic substrate Boc-VPR-AMC for KLK5 (Table ). […] The P1–P1′ reactive site (Arg5 to Ser6) is critical for inhibitor binding, with the P1′ position contributing up to 50% of the total association energy. , The conserved serine at P1′ in Bowman-Birk inhibitors (BBIs) is essential for function. […] Preservation of serine in the P1′ position restored inhibitory activity seen in 5 and 6. Preserving the native serine restored efficacy to the nanomolar range (5: 31 ± 7 nM; 6: 114 ± 11 nM).
Methods for biological experiment
SFTI analogues were created by individual amino acid substitutions in PYMOL (Python Molecular Graphics System) using the existing solution NMR structure of native SFTI - 1 (1JBL) found in the RCSB (Research Collaboratory for Structural Bioinformatics) database. Residues of 2 were mutated as follows: L5R, I10H, and F12W with conserved SFTI-1 backbone structure. Other SFTI based analogues were further modified using PYMOL. Currently, there are no SFTI-1 and Kallikrein 5 co-crystal structures found in the RCSB database. Superimposing the existing crystal structure of SFTI-1 and Trypsin complex (4XOJ) with Kallikrein 5 crystal structure (2PSX) was performed with PYMOL. Ab-initio docking between KLK5 and 2 were performed with HADDOCK 2.4 1, 2, with binding active site parameter set to Arg2, Cys3, Thr4, Arg5, Ser6 for 2 and Ser195, His57, and Asp102 for KLK5 catalytic triad. PRODIGY 3-5, set at 25 °C, was used to predict dissociation constant and binding interactions of docked clusters. Structural visualization and alignment were performed with PYMOL 6, and comparative sequence analysis was performed with MEGA11 7.
A fluorescence spectrometer using SpectraMax® i3x plate reader (Molecular Devices, United States) was used to measure the relative fluorescence unit (RFU) on a 96-well black microplate (Grenier Bio-one, cat no. 655074). The wavelengths were set to 360/460 nm (excitation/emission) for the substrate Boc-VPR-AMC (Bachem AG, cat no. 4003460) and 320/405nm for the substrate Mca-RPKPVE-Nval-WRK(Dnp)-NH2 Fluorogenic MMP Substrate (R&D Systems Biotechne, cat no.ES002). The Boc-VPR-AMC stock solution was prepared by dissolving the solid form in dimethyl sulfoxide to 100 mM. Mca-RPKPVE-Nval-WRK(Dnp)-NH2 fluorogenic MMP Substrate is supplied as stock solution at 10.0 mg/mL in dimethyl sulfoxide. Boc-VPR-AMC was used as a substrate for KLK5, 8 and 14. Mca-RPKPVE-Nval-WRK(Dnp)-NH2 was used as a substrate for KLK7. The ligand-only solution serves as a negative control (minimum RFU, 100% inhibition), and enzyme-only was served as positive (maximum RFU, 0% inhibition). The activities of proteases were measured and readout against the standard curve made in serial dilutions of tested recombinant KLKs, ranging from 0nM to 60nM. Each assay was done in triplicates and repeated at least for three times […]
Assessment of analogue mediated inhibition of KLK5, KLK7, KLK8, and KLK14 […]
Recombinant KLK5 (R&D Systems, cat no. 1108-SE) was diluted to a final concentration of 10 nM in 1X PBS (pH 8.0). KLK5 was pre -incubated on ice for 1 hour with serial dilutions of SFTI-derived analogues to assess inhibitory activity. After incubation, 20 µL of each mixture was transferred to we lls of a 96-well microplate in triplicates. The enzymatic reaction was initiated by adding 100 µL of Boc -VPR-AMC substrate (final concentration 100 µM) to each well. Fluorescence (RFU) was measured using a SpectraMax® i3x plate reader with chamber temperature maintained at 37°C. Readings were started at 0 minutes (baseline) and another […]
Recombinant KLK7 (R&D Systems , cat no. 2624-SE) and KLK14 (R&D Systems, cat no. 2664-SE) were activated by adding 1 mM CaCl ₂ 0.05% v/v Brij-35 (Sigma, cat no. […]
incubated at 37°C for 1 hour. Reactions were stopped by adding EDTA to a final concentration of 50 mM (Sigma, cat no. EDS-100G) KLK8 (catalytic domain only; R&D Systems, cat no. 2025-SE-010) was activated separately with 11 nM lysyl […]

The target of assay [3] is T2, KLK7 (Homo sapiens, UniProt P49862). Kind of assay: Protease activity assay: inhibition of recombinant KLK7 (Mca-RPKPVE-Nval-WRK(Dnp)-NH2 substrate). It counts as biochemical. More on the design: purchased R&D Systems 2624-SE. The following applies: n = 3; 100 nM KLK7, 37°C, 20 hours; read-out: IC50 (n = 3)/nM for KLKs: KLK7. From the text: using the following equation: […]
(1 picture or pasted object on this page, not shown here)

The target in assay [4] is plasmin. Also on record: method as in PMID 7543841. The following applies: read-out: Ki against trypsin-like plasmin; cited from earlier work.
The target of a further assay is LEKTI-2 (Homo sapiens) (UniProt Q5DT21). The following applies: cited from earlier work.
Assay [5] has as its target Kallikrein-related peptidase 5 (KLK5) (UniProt Q9Y337). Kind of assay: enzyme inhibition assay (fluorogenic substrate); inhibition of KLK5 activity by the peptide, fluorogenic substrate Boc-VPR-AMC, n = 3; conditions in the Supporting Information.
In assay [6] the target is T3, KLK8 (UniProt O60259 33-260).
T3 construct: Kallikrein 8 (KLK8); construct and source are in the Supporting Information
T3 sequence (looked up): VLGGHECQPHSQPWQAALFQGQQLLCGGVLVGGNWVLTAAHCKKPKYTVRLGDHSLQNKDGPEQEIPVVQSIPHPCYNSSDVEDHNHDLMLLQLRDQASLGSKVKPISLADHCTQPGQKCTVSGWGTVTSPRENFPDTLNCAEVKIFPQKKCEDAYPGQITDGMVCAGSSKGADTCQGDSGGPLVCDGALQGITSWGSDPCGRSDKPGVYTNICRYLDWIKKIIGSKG
Kind of assay: enzyme inhibition assay (fluorogenic substrate); selectivity: inhibition of KLK7, KLK8 or KLK14 activity by the peptide, n = 3; substrates and conditions in the Supporting Information.

The target of assay [7] is T4, KLK14 (UniProt Q9P0G3).
T4 sequence (Q9P0G3 41-267, species assumed, looked up): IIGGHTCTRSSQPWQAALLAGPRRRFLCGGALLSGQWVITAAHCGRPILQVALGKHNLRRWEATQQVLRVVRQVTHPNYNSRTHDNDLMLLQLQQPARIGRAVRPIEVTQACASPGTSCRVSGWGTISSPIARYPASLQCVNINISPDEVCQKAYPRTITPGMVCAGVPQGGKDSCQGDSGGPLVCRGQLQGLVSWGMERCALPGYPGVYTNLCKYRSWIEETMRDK
The assay is described as above.

Assay [8] concerns the target T5, KLK8 (Homo sapiens, UniProt O60259).
T5 construct: purchased R&D Systems 2025-SE-010
T5 sequence (O60259 33-260): T3 sequence (looked up)
More on the design: method as in Chen et al. (2016). The settings on record: ref Chen et al. (2016); read-out: IC50 (n = 3)/nM for KLKs: KLK8; cited from earlier work.

The target in assay [9] is T1, KLK5. Also on record: method as in Chen et al. (2016). The settings on record: earlier work of the authors; ref Chen et al. (2016); read-out: IC50 (n = 3)/nM for KLKs: KLK5; cited from earlier work.
The next assay addresses aprotinin (Bos taurus) (UniProt P00974). The following applies: cited from earlier work.
The target in assay [10] is T2, KLK7. More on the design: purchased R&D Systems 2624-SE. The following applies: prior findings, reference not given; cited from earlier work.
Target sequence in this assay (P49862 30-253): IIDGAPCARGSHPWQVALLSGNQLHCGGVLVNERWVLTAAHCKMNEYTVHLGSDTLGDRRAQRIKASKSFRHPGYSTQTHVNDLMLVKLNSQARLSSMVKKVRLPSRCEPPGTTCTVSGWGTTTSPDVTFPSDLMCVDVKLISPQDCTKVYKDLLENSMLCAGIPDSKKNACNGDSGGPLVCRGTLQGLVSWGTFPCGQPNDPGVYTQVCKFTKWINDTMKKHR
For assay [11], the target named is T6, KLK14 (Homo sapiens, UniProt Q9P0G3).
T6 construct: purchased R&D Systems 2664-SE
T6 sequence (Q9P0G3 25-251): T4 sequence (Q9P0G3 41-267, species assumed, looked up)
The settings on record: prior findings, reference not given; cited from earlier work.

Regarding `CCOC(=O)c1ccc(OC(=O)CCCCCN=C(N)N)cc1` [Gabexate mesylate], the IC50 in the assay on plasmin [1] is 30000 nM; in the assay with thrombin, 110000 nM; in the assay on trypsin, 9400 nM; in the assay on plasma kallikrein, 41000 nM.
As to `C[C@@H](O)[C@@H]1NC(=O)[C@@H]2CSSC[C@H](NC(=O)[C@H](CCC(=O)O)NC(=O)[C@@H]3CCCN3C(=O)[C@@H]3CCCN3C(=O)[C@H](CO)NC(=O)[C@H](CO)NC(=O)[C@H](CCCNC(=N)N)NC1=O)C(=O)N[C@@H](Cc1c[nH]c3ccccc13)C(=O)N1CCC[C@H]1C(=O)N[C@@H](CC(N)=O)C(=O)NCC(=O)N[C@@H](CO)C(=O)N2` [compound 9] (cyclo(GSCTRSSPPECWPN); disulfide 3-11), on KLK5 [2], the “selectivity for KLK5 against select KLKs in skin” value was found to be 4 fold and the IC50 came out at 54 ± 6 nM. Also, at KLK7 [3], the IC50 was determined as 165 ± 12 nM.
As for `C[C@@H](O)[C@@H]1NC(=O)[C@@H]2CSSC[C@H](NC(=O)[C@H](CCC(=O)O)NC(=O)[C@@H]3CCCN3C(=O)[C@@H]3CCCN3C(=O)[C@H](CO)NC(=O)[C@H](CO)NC(=O)[C@H](CCCNC(=N)N)NC1=O)C(=O)N[C@@H](Cc1c[nH]c3ccccc13)C(=O)N1CCC[C@H]1C(=O)N[C@@H](CC(N)=O)C(=O)NCC(=O)N[C@@H](Cc1ccc(O)cc1)C(=O)N2` [compound 10] (cyclo(GYCTRSSPPECWPN); disulfide 3-11), at KLK5 [2], the “selectivity for KLK5 against select KLKs in skin” value is listed as 4 fold and the IC50 is 56 ± 7 nM. Moreover, at KLK7 [3], the IC50 was determined as 240 ± 14 nM.
For orientation: Ki means the equilibrium dissociation constant of an inhibitor or competing ligand from its target. With Aprotinin, the Ki on plasmin [4] is 0.07 nM.
In the case of KLK5 (from UniProt Q9Y337), in the assay with LEKTI-2 (Homo sapiens), the Ki is 65 nM.
With “Sunflower trypsin inhibitor-1 (SFTI-1) 1 (peptide)”, the IC50 turned out to be 230 nM in [5], 1290 nM in the assay with KLK8 [6] and 30 nM in the assay with KLK14 [7].
In the case of “Sunflower trypsin inhibitor-1 [compound 1]”, the IC50 on KLK8 [8] is 1290 ± 51 nM; at KLK5 [9], 230 ± 3 nM.
plasmin (from UniProt P00747): the Ki with aprotinin (Bos taurus) is 0.07 nM.

B1: LEKTI-2: LEKTI-2, encoded by SPINK9, selective binding to KLK5 (protein, UniProt Q5DT21 20-86, looked up)
Serine protease inhibitor …: IECAKQTKQMVDCSHYKKLPPGQQRFCHHMYDPICGSDGKTYKNDCFFCSKVKKTDGTLKFVHFGKC
Take B1: the “inhibition of KLK7” value with KLK7 [10] was “without potently inhibiting”. Besides, the “inhibition of KLK14” value with KLK14 [11] is “without potently inhibiting”.
